The text below walks through data of patent US20050165068A1, “Compounds, in particularly of urea derivatives or esters of haloacetamidobenzoic acid and use thereof for the treatment of parasitic diseases” (priority 2002, published 2005).

Series [1] relates to promastigote phase of Leishmania. The settings on record: 96 hours of contact, MTT marker; values of FIG. 1 not given.
In the next series the test system is mouse microphages. To be noted: times less on mouse microphages than on the parasite.
A further series has as its system L. major. As to the kind of experiment: in vivo anti-Leishmania activity, cutaneous model (L. major in Balb/c mice). To be noted: MF 29 10 mg/kg intra-peritoneal once per day for 10 days, Glucantime subcutaneous, same scheme. How it is done: (§1) In promastigotes of L. major (2×106) or of L. infantum (10^7) in the stationary phase are inoculated respectively by the subcutaneous route in the rear right paw or by intravenous route in the caudal vein. […] Meglumine antimoniate (Glucantime-Speca™ Rhone-Poulenc, Paris, France) containing 85 mg of pentavalent antimony per ml is administered by subcutaneous route according to the same therapeutic scheme. The control group receives the solvent of MF 29 and of the saline solution at 0.9% by intra-peritoneal route.
(§2) For the cutaneous model, the efficacy of the treatment is evaluated by measuring the edema at the infected paw with the help of an electronic sliding foot (ref. 56371; Polylabo; Strasburg, France), and reported relative to the thickness of the counter-lateral paw. The mice are sacrificed […] after infection. A fragment of derma, of the spleen, of the liver and of the polyptic ganglion draining the lesion are set aside to determine the parasitic load in situ. As to the model of visceral leishmaniosis, the same protocol is carried out on the spleen and the liver. The parasitic load is expressed by the log10 of the number of parasites per gram of tissue.

Another series relates to L. infantum. As to the kind of experiment: in vivo anti-Leishmania activity, visceral model (L. infantum). Set-up: species or system mice. The settings on record: L. infantum intravenous, MF 29 10 mg/kg intra-peritoneal once per day for 10 days, Glucantime subcutaneous. As to the method:
as §1, §2

For a further series, the system named is tubuline of beef brain. How it is done:
The anti-microtubular activity of MF 29 is also compared to that of MF 191 and to that of the vinblastine on the assembly of the tubulines of beef brain.
Experiments carried out to measure the capacity of in vitro polymerization of the tubuline were carried out with the help of a spectrophotometer provided with a circulating bath system at 37° C. and an automatic well loader permitting simultaneous measurement of several tests. The optical density which increases with polymerization of the assembly of the tubulines of the brain according to Lebanski et al., 1973, that is induced with the promoter MAP2 is measured at 345 nm every thirty seconds.

Series [2] deals with Trypanosoma cruzi Peruvian strain. How it is done:
The in vivo anti-Trypanosoma activity of MF 29 has also been studied. Mice were infected with Trypanosoma cruzi Peruvian strain by intravenous route. Four days post-infection, the mice are treated with MF 29 by intra-peritoneal route once per day in the amount of 10 mg/Kg for 10 days. The control group receives the solvent. The effectiveness of the treatment is evaluated by measuring parasitemia and followed by mortality.

Another series concerns Plasmodium falciparum. The text has this: MF 29 has been evaluated in a test of inhibition of the proliferation of Plasmodium falciparum (mortal species) in an intra-erythrocytic model by measuring the incorporation of hypoxanthine.
Series [3] deals with MRC5 line (normal tissue of fetal lung). To be noted: times less for MRC5 line than on the parasite.
Method: (§3) A tetrazolium salt (MTT) has been used as marker. In the case of L. mexicana, the molecules were evaluated relative to the intracellular amastigote stage (macrophages of Balb/c), the stage encountered in patients.
Series [4] concerns promastigotes of L. mexicana. To be noted: treatment for one hour at 5 μg/ml, sweeping electron microscope.
Series [5] concerns L. mexicana intracellular amastigote stage. As to the kind of experiment: activity on the intracellular amastigote stage of L. mexicana in macrophages of Balb/c. To be noted: times greater than GLUCANTIME
Method: as §3

Converted amounts (≈) assume the structure as drawn. Read-outs that look alike come from different tables or passages of the source.

Method for mouse microphages: as §3

`CCOC(=O)c1ccc(NC(=O)CCl)cc1` [GR 37, 4-chloroacetamido ethyl benzoate]: the “in vitro anti-Leishmania activity (CI50 of Table 1 / FIG. 1, described in words)” value in series [1] is “extraordinary activity”. Moreover, the “cytotoxicity on mouse macrophages relative to the parasite” value with mouse microphages was 1000 times.
For the molecule `CCOC(=O)c1ccccc1NC(=O)CCl` [GR 38], in [1], the “in vitro anti-Leishmania activity (CI50 of Table 1 / FIG. 1, described in words)” value was “similar”.
On to `CCOC(=O)c1cccc(NC(=O)CCl)c1` [MF 29, 3-chloroacetamido ethyl benzoate], for which, in the series with L. major, the “reduction of the hepatic parasitic load” value was determined as 96%, the “reduction of the polyptic ganglion parasitic load” value is listed as 59% and the “reduction of the spleen parasitic load” value came to 97%. In addition, in the series on L. infantum, the “reduction of the parasitic load in the liver” value came to 25% and the “reduction of the parasitic load in the spleen” value is recorded as 56%. Besides, the “inhibition of polymerization of tubuline of beef brain” value with tubuline of beef brain (37° C., MAP2 promoter, FIG. 4C) was “weak inhibitor”. Also, in the series with tubuline of beef brain (doubled concentration of the drug, FIG. 4D), the “inhibition of polymerization of tubuline of beef brain at doubled concentration” value is given as “significant inhibition”. For the same molecule, in series [2] (10 mg/Kg intra-peritoneal once per day for 10 days, FIG. 5), the mortality result is “retardation in the curve of mortality”. In [2] (20 mg/kg, preliminary results), the mortality result was “greater reduction of mortality”. For the same molecule, the “reduction of the parasitic load” value in series [2] (8th day, versus control group, 10 mg/Kg intra-peritoneal) is on record as 70%. The “parasitemia (load)” value in [2] (8th day, 10 mg/Kg intra-peritoneal once per day for 10 days from four days post-infection) was 200 trypomastigotes per 50 fields. Moreover, the “parasitemia versus control group” value in [2] (10th day, 10 mg/Kg intra-peritoneal) is recorded as “equivalent for the two groups”. In the series with Plasmodium falciparum (chloroquinine-sensitive strain (FCB1-Columbia)), this molecule registered a CI50 of 0.1 µg/mL (≈ 0.414 µM). This molecule also showed a CI50 in the series on Plasmodium falciparum (strain (Nigerian strain) resistant to chloroquinine) of 0.1 µg/mL (≈ 0.414 µM). In series [1], the “in vitro anti-Leishmania activity (CI50 of Table 1 / FIG. 1, described in words)” value is “high activity”. Also, in series [3], the “cytotoxicity for the MRC5 line relative to that obtained on the parasite” value is reported as 400 times. Further, in [4], the “effect on the flagella” value was “do not seem to be disturbed” and the “morphological changes of the cellular body” value was “multiple pores”. The “activity in the amastigote form relative to GLUCANTIME” value in series [5] turned out to be 300 times.
Take “meglumine antimoniate [Glucantime, reference compound]”: the “reduction of the polyptic ganglion parasitic load” value in the series with L. major was 44%. Further, in the series with L. infantum, the “reduction of the parasitic load in the liver” value was found to be 30% and the “reduction of the parasitic load in the spleen” value turned out to be 66%.
